Source: patent publication US20240139125A1 (INDUSTRIAL COOPERATION FOUNDATION JEONBUK NATIONAL …, priority 2020, published 2024)

Experiments:
MCF7 = test: Cell proliferation/viability with BIA, IC50 after 3 days; assay type: cell-based; details: Homo sapiens, MCF7, 72 h; MCF cells, treatment for 3 days
[1] = system: human breast cancer cells labeled with DiI dye; test: Zebrafish tumor model; assay type: in vivo; details: 2 uM BIA, third day after transplantation
[2] = system: tumors derived from MDA-MB-231 cells; test: Xenograft in nude mice; assay type: in vivo; details: MDA-MB-231 xenograft, 1 mg/kg BIA, 5 days a week, 25 days
Description: FIG. 67C and FIG. 67D show the volume and weight of tumors derived from MDA-MB-231 cells injected into a nude mouse treated with a vehicle or 1 mg/kg BIA. (n=5 mice for each group). Data were expressed as mean±SD. ***p<0.001, ****p<0.0001, followed by binary ANOVA, followed by Bonferroni's post hoc test (C) or two-tailed unpaired t-test (B).
Mice purchased 20-25 g of BALBc/Nude and conducted experiments after 1 week of preliminary breeding to adapt to the laboratory environment. This experiment was approved by the Animal Experiment Ethics Committee of Chonbuk National University (CBNU 201 5-064, CBNU 2016-56) and was carried out according to standard work instructions, and the conditions in the breeding room were kept constant temperature and relative humidity, a 12-hour contrast cycle, and water and feed were freely consumed. Experimental animals are transplanted subcutaneously with 5×10^6 cells per mouse using HT1080 cell line and MDA-MB-231 cell line, and after 7-10 days, mice forming tumor sizes of 100 mm^3 are randomly divided into control and experimental groups. The control group is injected with saline (including 10% DMSO) and the experimental group is injected with 1 mg/kg (10% DMSO) into the abdomen. The drug is given 5 days a week, and repeated for 4 weeks. […] The tumor size was measured with a caliper and calculated using the following formula: […]

BAL inflammatory cells = test: Aspergillus-infected asthmatic mouse model, BAL cells and lung histology; assay type: in vivo; details: asthma-inducing group; BIA 0.1 mg/kg and 0.01 mg/kg, IC87114 1 mg/kg, intratracheal
Excerpt: FIG. 80A and FIG. 80B show mice that were infected with aspergillus with or without BIA, or IC87114, fixing the tissue to 4% formalin, injecting paraffin to make blocks, and then cutting into 4 μm thick to react to buffer and performing hematoxylin-eosin staining. The observation result (A) and the observation result (B) by PAS staining are shown.
The result is quantified by counting the total number of cells of living BAL fluid, excluding dead cells stained in trypan blue.
A. fumigatus-induced allergic pulmonary inflammation To establish the model, mice were treated with 10 μg of A. fumigatus crude antigen extract (Greer Laboratories, Cat # XPM3D3A4, Lenoir, NC, USA) with fungal substance inactivated. 0.2 ml of incomplete Freund's adjuvant (Sigma-Aldrich, Cat # F5506-6X) in regular saline It was dissolved and mixed, and half of the preparation was deposited in the peritoneal cavity and the rest was delivered subcutaneously. After 2 weeks, mice received 20 μg of A. fumigatus antigen dissolved in normal saline through the intranasal route, after an intranasal attack After 4 days, 20 μg of A. Fumigatus antigen dissolved in normal saline was treated via the endotracheal route. Control mice were administered only saline at the same time point in time through the same route and treated with the same number of conidia. […]

SMILES: Nc1ccccc1C(=O)/C=C/c1cccc([N+](=O)[O-])c1 [BIA, 2E-1-2-Aminophenyl-3-3-nitrophenyl-2-propen-1-one]
- IC50 (MCF7): 2.6 ± 0.4 µM
- movement of tumor cells away from the primary site [1]: remained at the injection site
- tumor growth [2]: significantly impaired
- all BAL inflammatory cells (BAL inflammatory cells): inhibited
